According to US6858638B2, “Substituted indazoles, compositions containing them, method of production and use” (Aventis Pharma S.A., priority 2002, dated 2005):

How the values were obtained:
Aurora2 kinase = target: T1, Aurora2 kinase (Homo sapiens, UniProt O14965); experiment: Aurora2 kinase radioactivity scintillation assay using nickel chelate (NuMA substrate); format: biochemical; conditions: 10 μM; for inhibition at 10 µM: read-out: Aurora2 % inhib at 10 μM
T1 construct: A complete recombinant Aurora2 enzyme; His tag (N); made in house; host or cells: E. coli
T1 sequence (O14965 1-403): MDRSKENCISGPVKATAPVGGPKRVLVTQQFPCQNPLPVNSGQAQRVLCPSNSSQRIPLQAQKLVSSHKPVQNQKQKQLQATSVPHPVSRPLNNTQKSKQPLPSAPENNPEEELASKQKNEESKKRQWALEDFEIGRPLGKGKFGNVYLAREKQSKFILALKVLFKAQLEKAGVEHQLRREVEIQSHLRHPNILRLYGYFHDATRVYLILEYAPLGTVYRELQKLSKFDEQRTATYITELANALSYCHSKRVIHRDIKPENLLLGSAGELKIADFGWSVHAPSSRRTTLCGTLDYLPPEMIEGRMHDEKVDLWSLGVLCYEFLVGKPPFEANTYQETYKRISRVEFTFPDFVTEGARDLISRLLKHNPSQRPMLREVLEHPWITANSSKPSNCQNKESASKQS
Summary of the method: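 His-tagged full-length Aurora2 (0.02 μM, E. coli) phosphorylating His-tagged NuMA C-terminal fragment (0.5 μM) with 1 μM ATP plus [33P]-ATP, 30 min at 37 °C, pH 7.5 Tris buffer with MgCl2. Nickel-chelate scintillation read; percent inhibition versus no-compound control.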

human FAK = target: T2, human FAK (Homo sapiens, UniProt Q05397); experiment: FAK autophosphorylation inhibition, time resolved fluorescence (HTRF) assay; format: biochemical; conditions: 10 μM (values without asterisk); for inhibition at 10 µM: read-out: FAK % inhib at 10 μM
T2 construct: The complete cDNA of human FAK; made in house; host or cells: baculovirus expression system (vector pFastBac HTc)
Summary of the method: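 His-tagged full-length human FAK from baculovirus (6.6 µg/ml) self-phosphorylates with 15 µM ATP in HEPES pH 7.2, MgCl2, vanadate, 1 h at 37 °C. HTRF detection (Eu-anti-phosphotyrosine / XL665-anti-His), 665/620 nm ratio; % inhibition vs untreated control, duplicate mean.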

human KDR enzyme = target: T3, human KDR enzyme (Homo sapiens, UniProt P35968); experiment: KDR substrate (PLCγ) phosphorylation, scintillation assay; format: biochemical; conditions: 10 μM; for inhibition at 10 µM: read-out: KDR % inhib at 10 μM
T3 construct: The cytoplasmic domain of the human KDR enzyme; GST; made in house; host or cells: SF21 insect cells (baculovirus)
Summary of the method: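 GST-fused human KDR cytoplasmic domain from SF21 cells (about 60% pure, 100 ng) phosphorylated 2 μg of GST-PLCγ SH2-SH3 fragment. The trigger solution held γ33P-ATP with 2 μM cold ATP, in MOPS buffer pH 7.2 with Mg2+, Mn2+, vanadate and NaF. Reactions ran 1 h at 37 °C, were stopped with EDTA and counted by scintillation; results are % inhibition versus the no-compound control.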

c-Src protein = experiment: Src kinase phosphorylation of biotinylated cdc2 substrate, fluorescence (DELFIA); format: biochemical, human
Experimental: The inhibition of the Src kinase is evaluated by measuring the phosphorylation of the biotinylated cdc2 substrate (Pierce) detected by fluorescence (DELFIA) using an antiphosphotyrosine antibody labeled with Europium, in 96-well Wallac plates. The c-Src protein used is a recombinant human protein produced in Baculovirus, comprising the SH3 and SH2 and the catalytic domains. The enzyme, the substrate and the various concentrations of test compounds are placed in the well in a 50 mM Tris buffer containing 10 mM MgCl2. The reaction is initiated by adding 10 μM of ATP. After incubation for 60 minutes at 30° C., the reaction is stopped by adding 75 mM EDTA. 50 μl are taken from each well and transferred into a plate coated with streptavidin. After incubation for 30 minutes at 25° C., the wells are washed with a washing buffer (Wallac) and then the antiphosphotyrosine antibody (PY20-Europium [Perkin Elmer]) is added in a volume of 75 μl. The plate is incubated for 30 minutes at 25° C. and then an “Enhancer” solution (Wallac) is added before reading the fluorescence using a fluorimeter (Perkin Elmer). The background noise is evaluated in triplicate in wells containing the substrate and the antibody in the absence of enzyme. The activity of the enzyme is measured (in triplicate) in the wells containing all the reagents in the absence of compound. The inhibition of the Src activity is expressed as percentage inhibition of the activity of the control determined in the absence of compound. The compound PP2 (Calbiochem) is included at various concentrations in each experiment as an inhibition control.

NCI-H460 cells = conditions: concentration of 100 μM; cited from earlier work
HCT-15 cells = conditions: concentration of 100 μM; cited from earlier work
[1] = target: T4, human IGF1R cytoplasmic domain (Homo sapiens, UniProt P08069); experiment: IGF1R autophosphorylation inhibition, time resolved fluorescence (HTRF) assay; format: biochemical; conditions: 10 μM
T4 construct: The human IGF1R cytoplasmic domain was cloned; made in house; host or cells: SF21 insect cells (baculovirus)
Summary of the method: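 GST-tagged human IGF1R cytoplasmic domain from SF21 cells incubated with compound in 50 mM Hepes pH 7.5, 5 mM MnCl2, 50 mM NaCl, […] ATP. Autophosphorylation detected by HTRF (Eu-K anti-phosphotyrosine, XL665 anti-GST) after EDTA/KF stop; percentage inhibition versus no-compound control.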

T3 sequence (P35968 786-1356 limits assumed): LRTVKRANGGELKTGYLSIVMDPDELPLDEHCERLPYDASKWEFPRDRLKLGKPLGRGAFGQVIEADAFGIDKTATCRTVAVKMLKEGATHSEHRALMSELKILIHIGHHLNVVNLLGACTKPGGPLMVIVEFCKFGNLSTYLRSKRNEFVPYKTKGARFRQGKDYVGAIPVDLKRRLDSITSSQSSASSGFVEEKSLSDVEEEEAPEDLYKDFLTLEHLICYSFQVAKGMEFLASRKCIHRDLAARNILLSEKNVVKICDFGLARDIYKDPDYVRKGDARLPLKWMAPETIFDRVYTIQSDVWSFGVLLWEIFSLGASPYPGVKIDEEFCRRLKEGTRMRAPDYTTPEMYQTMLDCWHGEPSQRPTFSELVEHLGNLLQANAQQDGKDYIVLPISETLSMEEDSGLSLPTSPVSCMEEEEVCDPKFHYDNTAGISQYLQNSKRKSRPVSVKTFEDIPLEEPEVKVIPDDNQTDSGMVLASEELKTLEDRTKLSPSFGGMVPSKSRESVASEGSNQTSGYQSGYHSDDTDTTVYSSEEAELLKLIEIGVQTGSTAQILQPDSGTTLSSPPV
T2 sequence (Q05397 whole entry): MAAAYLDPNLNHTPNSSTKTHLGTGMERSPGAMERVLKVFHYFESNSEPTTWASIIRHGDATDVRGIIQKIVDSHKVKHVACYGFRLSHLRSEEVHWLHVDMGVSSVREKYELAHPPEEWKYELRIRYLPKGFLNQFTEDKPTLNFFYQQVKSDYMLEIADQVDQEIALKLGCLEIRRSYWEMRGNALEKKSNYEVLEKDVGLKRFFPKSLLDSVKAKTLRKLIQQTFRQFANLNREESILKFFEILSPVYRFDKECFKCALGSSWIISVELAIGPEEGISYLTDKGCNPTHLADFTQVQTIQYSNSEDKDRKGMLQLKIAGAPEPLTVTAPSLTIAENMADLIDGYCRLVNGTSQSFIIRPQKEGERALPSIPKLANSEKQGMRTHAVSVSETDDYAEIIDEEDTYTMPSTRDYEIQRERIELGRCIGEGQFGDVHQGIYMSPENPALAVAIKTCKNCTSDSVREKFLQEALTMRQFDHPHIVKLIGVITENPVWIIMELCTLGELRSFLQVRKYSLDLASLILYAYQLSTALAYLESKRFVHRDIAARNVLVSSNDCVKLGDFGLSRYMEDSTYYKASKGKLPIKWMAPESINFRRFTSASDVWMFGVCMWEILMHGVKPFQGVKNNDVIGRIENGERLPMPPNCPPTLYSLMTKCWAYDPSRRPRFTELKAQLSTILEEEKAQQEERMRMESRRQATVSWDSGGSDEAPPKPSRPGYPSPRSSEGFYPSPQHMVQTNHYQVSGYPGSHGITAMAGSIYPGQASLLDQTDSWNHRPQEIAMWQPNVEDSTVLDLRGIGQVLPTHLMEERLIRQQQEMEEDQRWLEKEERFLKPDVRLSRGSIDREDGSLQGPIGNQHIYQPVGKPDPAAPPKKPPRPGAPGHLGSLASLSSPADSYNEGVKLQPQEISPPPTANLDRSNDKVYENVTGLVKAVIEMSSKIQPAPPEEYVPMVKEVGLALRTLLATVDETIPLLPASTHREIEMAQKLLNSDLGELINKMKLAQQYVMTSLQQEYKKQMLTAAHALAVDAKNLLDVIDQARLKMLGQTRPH
T4 sequence (P08069 960-1367 limits assumed): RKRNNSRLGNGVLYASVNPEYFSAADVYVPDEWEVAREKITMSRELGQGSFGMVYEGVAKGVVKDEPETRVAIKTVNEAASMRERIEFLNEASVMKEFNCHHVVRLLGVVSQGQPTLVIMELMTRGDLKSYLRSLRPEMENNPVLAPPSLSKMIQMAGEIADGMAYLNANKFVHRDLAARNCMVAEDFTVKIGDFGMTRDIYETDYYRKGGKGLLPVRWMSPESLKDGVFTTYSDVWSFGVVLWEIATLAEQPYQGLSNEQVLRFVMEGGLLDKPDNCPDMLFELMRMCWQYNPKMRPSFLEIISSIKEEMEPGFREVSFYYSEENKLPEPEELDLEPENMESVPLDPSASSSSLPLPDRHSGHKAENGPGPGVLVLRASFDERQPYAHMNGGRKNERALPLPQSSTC

inhibition at 10 µM (Aurora2 kinase) [%] | inhibition at 10 µM (human FAK) [%] | inhibition at 10 µM (human KDR enzyme) [%] | SRC % inhib at 10 μM (c-Src protein) [%] | melting point [°C] | IGF1R % inhib at 10 μM [1] [%] | Aurora2 % inhib at 10 μM (Aurora2 kinase) [%] | FAK % inhib at 10 μM (human FAK; 10 µM) [%] | KDR % inhib at 10 μM (human KDR enzyme) [%] | Compound | growth inhibition (NCI-H460 cells) [%] | growth inhibition (HCT-15 cells) [%]
85 | 59 | 98 | 62 |  |  |  |  |  | O=S(=O)(Nc1ccc2[nH]nc(-c3ccccc3)c2c1)c1cccc(Cl)c1 [Example 136, 3-Chloro-N-(3-phenyl-1H-indazol-5-yl)-benzenesulfonamide] |  | 
93 | 50 | 96 | 76 | 228 |  |  |  |  | O=[N+]([O-])c1cccc(S(=O)(=O)Nc2ccc3[nH]nc(-c4ccccc4)c3c2)c1 [Example 97, 3-Nitro-N-(3-phenyl-1H-indazol-5-yl)benzenesulfonamide] |  | 
72 | 30 | 41 | 86 | 235 |  |  |  |  | CS(=O)(=O)c1ccccc1S(=O)(=O)Nc1ccc2[nH]nc(-c3csc4ccccc34)c2c1 [Example 64, N-(3-Benzo[b]thiophen-3-yl-1H-indazol-5-yl)-2-methylsulfonylbenzenesulfonamide] |  | 
94 | 53 | 91 | 78 |  |  |  |  |  | Nc1cccc(S(=O)(=O)Nc2ccc3[nH]nc(-c4ccccc4)c3c2)c1 [Example 98, 3-Amino-N-(3-phenyl-1H-indazol-5-yl)benzenesulfonamide] |  | 
86 | 0 | 96 | 88 |  |  |  |  |  | CCCCN(CCCC)c1cccc2c(S(=O)(=O)Nc3ccc4[nH]nc(-c5ccccc5)c4c3)cccc12 [Example 147, 5-Dibutylamino-N-(3-phenyl-1H-indazol-5-yl)naphthalene-1-sulfonamide] |  | 
80 | 38 | 97 | 43 |  |  |  |  |  | O=S(=O)(Nc1ccc2[nH]nc(-c3ccccc3)c2c1)c1cccc(Br)c1 [Example 141, 3-Bromo-N-(3-phenyl-1H-indazol-5-yl)-benzenesulfonamide] |  | 
86 | 69 | 3 | 56 |  |  |  |  |  | CS(=O)(=O)c1ccccc1S(=O)(=O)Nc1ccc2[nH]nc(Br)c2c1 [Example 38, N-(3-Bromo-1H-indazol-5-yl)-2-methylsulfonylbenzenesulfonamide] |  | 
100 | 67 | 91 | 83 | 225 |  |  |  |  | O=S(=O)(Nc1ccc2[nH]nc(-c3ccccc3)c2c1)c1cccnc1 [Example 96, N-(3-Phenyl-1H-indazol-5-yl)pyridine-3-sulfonamide] |  | 
96 | 53 | 96 | 51 |  |  |  |  |  | O=S(=O)(Nc1ccc2[nH]nc(-c3ccccc3)c2c1)c1ccccc1Br [Example 139, 2-Bromo-N-(3-phenyl-1H-indazol-5-yl)-benzenesulfonamide] |  | 
80 | 53 | 96 | 59 |  |  |  |  |  | O=S(=O)(Nc1ccc2[nH]nc(-c3ccccc3)c2c1)c1cc(Cl)cc(Cl)c1 [Example 137, 3,5-Dichloro-N-(3-phenyl-1H-indazol-5-yl)-benzenesulfonamide] |  | 
78 | 21 | 41 | 77 | 186 |  |  |  |  | CS(=O)(=O)c1ccccc1S(=O)(=O)Nc1ccc2[nH]nc(-c3cccc4ccccc34)c2c1 [Example 72, 2-Methylsulfonyl-N-(3-naphthalen-1-yl-1H-indazol-5-yl)-benzenesulfonamide] |  | 
 |  |  |  |  |  |  |  |  | COc1cc(S(=O)(=O)Nc2ccc3[nH]ncc3c2)cc(OC)c1OC [N-(1H-indazol-5-yl)-3,4,5-trimethoxybenzenesulfonamide] | 18.5 | 47.6
100 | 87 | 38 | 40 | 221 |  |  |  |  | CS(=O)(=O)c1ccccc1S(=O)(=O)Nc1ccc2[nH]nc(-c3ccc4ccccc4c3)c2c1 [Example 73, 2-Methylsulfonyl-N-(3-naphthalen-2-yl-1H-indazol-5-yl)-benzenesulfonamide] |  | 
 |  |  |  | 246 | 63 | 91 | 99 | 80 | CS(=O)(=O)c1ccccc1S(=O)(=O)Nc1ccc2[nH]nc(-c3cccs3)c2c1 [Example 50, 2-Methylsulfonyl-N-(3-thiophen-2-yl-1H-indazol-5-yl)benzenesulfonamide] |  | 
69 | 26 | 94 | 18 |  |  |  |  |  | O=S(=O)(Nc1ccc2[nH]nc(-c3ccccc3)c2c1)c1cccc(C(F)(F)F)c1 [Example 130, 3-Trifluoromethyl-N-(3-phenyl-1H-indazol-5-yl)-benzenesulfonamide] |  | 
100 | 75 | 20 | 90 |  |  |  |  |  | CS(=O)(=O)c1ccccc1S(=O)(=O)Nc1ccc2[nH]nc(-c3ccc([N+](=O)[O-])cc3)c2c1 [Example 66, N-[3-(4-Nitrophenyl)-1H-indazol-5-yl]-2-methylsulfonylbenzenesulfonamide] |  | 
95 | 91 | 85 |  | 244 |  |  |  |  | COC(=O)c1ccc(-c2n[nH]c3ccc(NS(=O)(=O)c4ccccc4S(C)(=O)=O)cc23)cc1 [Example 68, Methyl 4-[5-(2-methylsulfonylbenzenesulfonamino)-1H-indazol-3-yl]benzoate] |  | 
100 | 89 | 45 |  | 192 |  |  |  |  | CS(=O)(=O)c1ccccc1S(=O)(=O)Nc1ccc2[nH]nc(CCc3ccccc3)c2c1 [Example 90, 2-Methylsulfonyl-N-(3-phenethyl-1H-indazol-5-yl)benzenesulfonamide] |  | 
